In the supplement of paper PMC10307832:

Assays:
Experiment in all cases: relative viability (nuclei count vs DMSO), 5 days (fraction); higher = more cells survive
[1] = compound: C=CC(=O)N1CCC[C@@H](n2nc(-c3ccc(Oc4ccccc4)cc3)c3c(N)ncnc32)C1 [Ibrutinib] + CC1(C)CCC(c2ccc(Cl)cc2)=C(CN2CCN(c3ccc(C(=O)NS(=O)(=O)c4ccc(N[C@H](CCN5CCOCC5)CSc5ccccc5)c(S(=O)(=O)C(F)(F)F)c4)cc3)CC2)C1 [Navitoclax] (partner 0.5 µM)
Summary of the method: (§1)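 The day after seeding in 1536-well plates, lung cancer cell lines were treated by pin tool with a single drug, or with a fixed anchor-drug dose together with five library-drug doses (not always all listed) in √10 steps. After 5 days, a combined fix-and-stain solution (final 0.05% Triton X-100, 1% formaldehyde, 1 ug/ml Hoechst) was added. Nuclei counted on 4× images gave relative viability as treated counts over vehicle counts, reported as the median of duplicate plates.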

[2] = compound: C=CC(=O)N1CCC[C@@H](n2nc(-c3ccc(Oc4ccccc4)cc3)c3c(N)ncnc32)C1 [Ibrutinib] + COc1cccc2cc(-c3nc([C@H]4CC[C@H](C(=O)O)CC4)n4ncnc(N)c34)[nH]c12 [OSI-027] (partner 0.5 µM)
Summary of the method: as §1

[3] = compound: C=CC(=O)Nc1cc(-n2c(=O)ccc3cnc4ccc(-c5ccc(NS(C)(=O)=O)cc5)cc4c32)ccc1C [BMX-IN-1] + CC(=O)c1c(C)c2cnc(Nc3ccc(N4CCNCC4)cn3)nc2n(C2CCCC2)c1=O [Palbociclib] (partner 0.5 µM)
Summary of the method: as §1

[4] = compound: C=CCc1cccc(/C=N/NC(=O)CN2CCN(Cc3ccccc3)CC2)c1O [PAC-1] + Nc1nc2[nH]cc(CCc3ccc(C(=O)N[C@@H](CCC(=O)O)C(=O)O)cc3)c2c(=O)[nH]1 [Pemetrexed] (partner 0.2 µM)
Summary of the method: as §1

| Cell Line | relative viability ([1]; first compound 0.005 µM) | relative viability ([1]; first compound 0.01581 µM) | relative viability ([1]; first compound 0.05 µM) | relative viability ([1]; first compound 0.1581 µM) | relative viability ([1]; first compound 0.5 µM) | relative viability ([2]; first compound 0.005 µM) | relative viability ([2]; first compound 0.01581 µM) | relative viability ([2]; first compound 0.05 µM) | relative viability ([2]; first compound 0.1581 µM) | relative viability ([2]; first compound 0.5 µM) | relative viability ([3]; first compound 0.02 µM) | relative viability ([3]; first compound 0.2 µM) | relative viability ([3]; first compound 0.6325 µM) | relative viability ([3]; first compound 2 µM) | relative viability ([4]; first compound 0.02 µM) | relative viability ([4]; first compound 0.06325 µM) | relative viability ([4]; first compound 0.2 µM) | relative viability ([4]; first compound 2 µM) |
| --- | --- | --- | --- | --- | --- | --- | --- | --- | --- | --- | --- | --- | --- | --- | --- | --- | --- | --- |
| NCI-H322M | 1.21 | 1.18 | 1.26 | 1.25 | 0.724 | 0.482 | 0.564 | 0.513 | 0.507 | 0.488 | 0.531 | 0.484 | 0.478 | 0.445 | 0.591 | 0.65 | 0.618 | 0.603 |
| NCI-H441 | 0.561 | 0.556 | 0.601 | 0.731 | 0.733 | 0.579 | 0.664 | 0.597 | 0.677 | 0.707 | 0.199 | 0.205 | 0.234 | 0.21 | 0.296 | 0.254 | 0.28 | 0.237 |
| NCI-H460 | 1.27 | 1.01 | 1.09 | 1.2 | 1.13 | 0.731 | 0.53 | 0.626 | 0.566 | 0.823 | 0.131 | 0.195 | 0.213 | 0.149 | 0.0683 | 0.0604 | 0.0685 | 0.0667 |
| NCI-H520 | 1.02 | 1.08 | 1.21 | 1.13 | 0.959 | 0.221 | – | 0.212 | 0.258 | 0.241 | 0.254 | 0.218 | 0.218 | 0.219 | 0.723 | 0.686 | 0.639 | 0.58 |
| NCI-H647 | 1.09 | 1.13 | 1.22 | 1.05 | 1.1 | – | 0.542 | 0.671 | 0.841 | 0.812 | 0.436 | 0.384 | 0.377 | 0.416 | 0.176 | 0.207 | 0.163 | 0.168 |
| NCI-H838 | 1.18 | 1.12 | 1.23 | 1.17 | 1.21 | 0.36 | 0.405 | 0.387 | 0.399 | 0.481 | 0.241 | 0.198 | 0.222 | 0.24 | 0.22 | 0.235 | 0.238 | 0.206 |
| NCI-H1355 | – | 0.904 | 0.918 | 0.96 | 0.801 | 0.29 | 0.388 | 0.382 | 0.347 | 0.403 | 0.394 | 0.392 | 0.399 | 0.404 | 1.01 | 1.06 | 1.01 | 1.11 |
| NCI-H1395 | 1.07 | – | 1.15 | 1.54 | 1.17 | 0.602 | 0.617 | 0.612 | 0.5 | 0.781 | 0.702 | 0.62 | 0.572 | 0.588 | 0.868 | 0.799 | 0.781 | 0.923 |
| NCI-H1437 | 1.14 | – | 1.11 | 1.13 | 1.14 | 0.718 | 0.846 | 0.941 | 0.913 | 0.878 | 0.326 | 0.294 | 0.354 | 0.328 | 0.31 | 0.32 | 0.305 | 0.3 |
